Test results reported in ChEMBL document CHEMBL1201862, “PubChem BioAssay data set” (2004).
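In this assay, cells in 96-well plates receive the compound at five concentrations for 48 hours. Endpoints are linearly interpolated between the surrounding concentrations. GI50 is the concentration that inhibits growth by half.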 Activity calls are given as the source filed them. Cut-off read from the data, not from the text of the source: active = GI50 up to about 1.1 µM and inactive = higher. Where a SMILES comes first, the peptide text is derived from it. The star is where a group is joined. Boc = CC(C)(C)OC(=O)*; Bn = c1ccc(C*)cc1

Columns and labels:
Test in all cases: DTP human tumour cell line panel, 48 h
BT-549 = test system: BT-549
EKVX = test system: EKVX
SN12C = test system: SN12C
SW-620 = test system: SW-620
SNB-19 = test system: SNB-19
SK-OV-3 = test system: SK-OV-3
NCI-H522 = test system: NCI-H522
UACC-62 = test system: UACC-62
Hs-578T = test system: Hs-578T
OVCAR-3 = test system: OVCAR-3
NCI/ADR-RES = test system: NCI/ADR-RES
HOP-92 = test system: HOP-92
HCT-116 = test system: HCT-116
NCI-H226 = test system: NCI-H226
786-0 = test system: 786-0
OVCAR-8 = test system: OVCAR-8
RPMI-8226 = test system: RPMI-8226

Row | Compound | GI50 (BT-549) | GI50 (EKVX) | GI50 (SN12C) | GI50 (SW-620) | GI50 (SNB-19) | GI50 (SK-OV-3) | GI50 (NCI-H522) | GI50 (UACC-62) | GI50 (Hs-578T) | GI50 (OVCAR-3) | GI50 (NCI/ADR-RES) | GI50 (HOP-92) | GI50 (HCT-116) | GI50 (NCI-H226) | GI50 (786-0) | GI50 (OVCAR-8) | GI50 (RPMI-8226)
1 | CC1(C)OCC(C2OC(C)(C)OC2[C@H]2O[C@@]3(O)[C@H]4[C@H](C=CC[C@@H]42)[C@@H](OCc2ccccc2)[C@H](OCc2ccccc2)[C@H]3OCc2ccccc2)O1 (stereo partly drawn) | 72.3 µM (inactive) | 33.7 µM (inactive) | 41.2 µM (inactive) | 27.8 µM (inactive) | 63.7 µM (inactive) | > 100 µM (inactive) | 37.1 µM (inactive) | 19.3 µM (inactive) | > 100 µM (inactive) | 52.2 µM (inactive) | 28.6 µM (inactive) | 44.2 µM (inactive) | 16.1 µM (inactive) | 59.3 µM (inactive) | 35 µM (inactive) | 22.7 µM (inactive) | 
2 | CSC1(C(=O)O)C2CCC3C2CCC31 (stereo not drawn) | > 100 µM (inactive) | > 100 µM (inactive) | > 100 µM (inactive) | > 100 µM (inactive) | > 100 µM (inactive) | > 100 µM (inactive) | > 100 µM (inactive) | > 100 µM (inactive) | > 100 µM (inactive) | > 100 µM (inactive) | > 100 µM (inactive) | > 100 µM (inactive) | > 100 µM (inactive) | > 100 µM (inactive) | > 100 µM (inactive) | > 100 µM (inactive) | > 100 µM (inactive)
3 | Cc1ccc(S(=O)(=O)NC(=O)Nc2c(S(N)(=O)=O)cc(S(N)(=O)=O)c(Cl)c2Cl)cc1 | > 100 µM (inactive) | > 100 µM (inactive) | > 100 µM (inactive) | > 100 µM (inactive) | > 100 µM (inactive) | > 100 µM (inactive) | > 100 µM (inactive) | > 100 µM (inactive) | > 100 µM (inactive) | > 100 µM (inactive) | > 100 µM (inactive) | > 100 µM (inactive) | > 100 µM (inactive) | > 100 µM (inactive) | > 100 µM (inactive) | > 100 µM (inactive) | > 100 µM (inactive)
4 | O=C(O)CN1CCN(CC(=O)O)CCN(CC(=O)O)CCN(CC(=O)O)CC1 [TETRAXETAN] | > 100 µM (inactive) | > 100 µM (inactive) | > 100 µM (inactive) | > 100 µM (inactive) | > 100 µM (inactive) |  | > 100 µM (inactive) | > 100 µM (inactive) | > 100 µM (inactive) | > 100 µM (inactive) | > 100 µM (inactive) | > 100 µM (inactive) | > 100 µM (inactive) | > 100 µM (inactive) | > 100 µM (inactive) | > 100 µM (inactive) | > 100 µM (inactive)
5 | COC(=O)C(CC(C)C)NC(=O)CNC(=O)C(Cc1ccc(OCc2ccccc2)cc1)NC(=O)C(COCc1ccccc1)NC(=O)OC(C)(C)C (stereo not drawn) (Boc-S(Bn)Y(Bn)GL-OMe; configuration not given here) | > 100 µM (inactive) | > 100 µM (inactive) | > 100 µM (inactive) | > 100 µM (inactive) | > 100 µM (inactive) | > 100 µM (inactive) | 72.8 µM (inactive) | > 100 µM (inactive) | > 100 µM (inactive) | > 100 µM (inactive) | > 100 µM (inactive) | > 100 µM (inactive) | > 100 µM (inactive) | > 100 µM (inactive) | > 100 µM (inactive) | > 100 µM (inactive) | 9.51 µM (inactive)
6 | [N-]=[N+]=Nc1c([N+](=O)[O-])c(=O)n2c3c(cccc13)CCC2 | 18.4 µM (inactive) | 19.4 µM (inactive) | 9.77 µM (inactive) | 3.9 µM (inactive) | > 67.8 µM (inactive) | > 100 µM (inactive) | 2.08 µM (inactive) | 14 µM (inactive) | 26.2 µM (inactive) | 17 µM (inactive) | 20.6 µM (inactive) | 14 µM (inactive) | 15.6 µM (inactive) | 24.2 µM (inactive) | 17.1 µM (inactive) | 17.3 µM (inactive) | 3.15 µM (inactive)
7 | COC(=O)C(=O)C(C(=O)C(=O)Nc1nnc(S)[nH]1)c1nc2ccc([N+](=O)[O-])cc2nc1O (stereo not drawn) | > 100 µM (inactive) | > 100 µM (inactive) | > 100 µM (inactive) | > 100 µM (inactive) | 44.7 µM (inactive) | > 100 µM (inactive) | > 100 µM (inactive) | > 100 µM (inactive) | > 100 µM (inactive) | > 100 µM (inactive) | > 100 µM (inactive) | > 100 µM (inactive) | > 100 µM (inactive) | > 100 µM (inactive) | > 100 µM (inactive) | > 100 µM (inactive) | > 100 µM (inactive)
8 | O=C1CCSCCC(=O)Nc2ccccc2N1 | > 100 µM (inactive) | > 100 µM (inactive) | > 100 µM (inactive) | > 100 µM (inactive) | > 100 µM (inactive) | > 100 µM (inactive) | > 100 µM (inactive) | > 100 µM (inactive) | 88.3 µM (inactive) | > 100 µM (inactive) | > 100 µM (inactive) | > 100 µM (inactive) | > 100 µM (inactive) | > 100 µM (inactive) | > 100 µM (inactive) | > 100 µM (inactive) | > 100 µM (inactive)
9 | O=c1c2cc(I)ccc2nc(SCc2n[nH]c(=S)o2)n1Cc1ccccc1 | 18.9 µM (inactive) | 19.3 µM (inactive) | 14.1 µM (inactive) | 19.7 µM (inactive) | 22.3 µM (inactive) | 23.4 µM (inactive) | 14.2 µM (inactive) | 12.5 µM (inactive) | 20.6 µM (inactive) | 15.2 µM (inactive) | 19.1 µM (inactive) | 14.3 µM (inactive) | 16 µM (inactive) | 11.1 µM (inactive) | 16.7 µM (inactive) | 19.1 µM (inactive) | 16.3 µM (inactive)
10 | Cn1c(N/N=C/c2ccc(Cl)cc2)nc(-c2ccc(Cl)cc2)c(C#N)c1=O | 21.8 µM (inactive) | 25.6 µM (inactive) | 44.1 µM (inactive) | 31 µM (inactive) | > 100 µM (inactive) | > 100 µM (inactive) | 10.9 µM (inactive) | 22 µM (inactive) | 30.3 µM (inactive) | 16.4 µM (inactive) | > 100 µM (inactive) | 22.3 µM (inactive) | 13.5 µM (inactive) |  | 15.3 µM (inactive) | 14.6 µM (inactive) | 33.3 µM (inactive)
11 | OCCOCn1cc(Cn2ncc3c(SCc4ccccc4)ncnc32)nn1 | 26.9 µM (inactive) | 38 µM (inactive) | 64.9 µM (inactive) | 26.7 µM (inactive) | 85.7 µM (inactive) | 61.5 µM (inactive) | 25.4 µM (inactive) | 37.1 µM (inactive) | 39.8 µM (inactive) | 44.8 µM (inactive) | 31.8 µM (inactive) | 99.8 µM (inactive) | 34.7 µM (inactive) | 62.8 µM (inactive) | 48.4 µM (inactive) | 91.8 µM (inactive) | 
12 | CCCCCc1c2nc(c(CCCCC)c3ccc([nH]3)c(CCCCC)c3nc(c(CCCCC)c4ccc1[nH]4)C=C3)C=C2 | > 100 µM (inactive) | > 100 µM (inactive) | > 100 µM (inactive) | > 100 µM (inactive) | > 100 µM (inactive) | > 100 µM (inactive) | > 100 µM (inactive) | > 100 µM (inactive) | > 100 µM (inactive) | > 100 µM (inactive) | > 100 µM (inactive) | > 100 µM (inactive) | > 100 µM (inactive) |  | > 100 µM (inactive) | > 100 µM (inactive) | > 100 µM (inactive)
13 | O=C(O)c1nc2cc(C(F)(F)F)ccc2nc1Nc1ccc(F)cc1 | 12.6 µM (inactive) | 21.9 µM (inactive) |  | 17.3 µM (inactive) | 16.7 µM (inactive) | 30.7 µM (inactive) | 7.5 µM (inactive) | 12.6 µM (inactive) | 19.6 µM (inactive) | 15.8 µM (inactive) | 20 µM (inactive) | 13.5 µM (inactive) | 15.4 µM (inactive) | 27 µM (inactive) | 22.4 µM (inactive) | 19.4 µM (inactive) | 4.17 µM (inactive)
14 | OC1C#CCSCC#C/C=C\1 (stereo not drawn) | > 100 µM (inactive) | > 100 µM (inactive) | 94 µM (inactive) | 18.4 µM (inactive) | > 100 µM (inactive) | > 100 µM (inactive) | 17.8 µM (inactive) | > 100 µM (inactive) | 34 µM (inactive) | > 100 µM (inactive) | 1.93 µM (inactive) | 62.2 µM (inactive) | 62.1 µM (inactive) | > 100 µM (inactive) | 3.58 µM (inactive) | 3.72 µM (inactive) | 
15 | CCCSc1ccc2[nH]c(N3C(=O)/C(=C/c4ccc(O)c(OC)c4)N=C3c3ccccc3)cc2c1 | 9.57 µM (inactive) | 14.5 µM (inactive) | 4.18 µM (inactive) | 5.61 µM (inactive) | 3.57 µM (inactive) | 0.1 µM (active) | 4.07 µM (inactive) | 3.07 µM (inactive) | 0.0697 µM (active) | 6.7 µM (inactive) | 3.1 µM (inactive) | 22 µM (inactive) | 7.59 µM (inactive) |  | 16.3 µM (inactive) | 21.3 µM (inactive) | 3.53 µM (inactive)
16 | CC(C)/C(Cl)=N\OC(=O)NNc1ccccc1 | 17.5 µM (inactive) | 15.3 µM (inactive) | > 48.1 µM (inactive) | 6.92 µM (inactive) | 73.3 µM (inactive) | > 100 µM (inactive) | 12.6 µM (inactive) |  | 54.6 µM (inactive) | > 35.8 µM (inactive) | 28.1 µM (inactive) | 16.3 µM (inactive) | 1.03 µM (active) | 27 µM (inactive) | 29 µM (inactive) | 0.168 µM (active) | < 0.0247 µM (active)
